Reference: patent publication US9365534B2, “Arylated camphenes, processes for their preparation and uses thereof” (Yissum Research Development Company of the Hebrew …, priority 2009, dated 2016)

Experiments:
[1] = test system: closed head injury (CHI); assay: Closed head injury (CHI) model, neurological severity score, Sabra mice; type: in vivo; settings: for most effective dose (recovery, ΔNSS): Sabra mice, i.p. 1 h after CHI, followed 21 days
Method: The study was conducted according to the guidelines of the Institutional Animal Care Committee of the Hebrew University. Male Sabra mice weighing 35 to 50 g were used in all experiments. Animals were kept under controlled light conditions with a 12 h/12 h light/dark cycle. Experimental closed head injury (CHI) was induced using a modified weight drop device developed in our laboratory as described previously (Chen et al., 1996). At 1 h after CHI, the functional status of the mice was evaluated according to a set of 10 neurobehavioral tasks, namely the neurological severity score (NSS). This score is based on the ability of the mice to perform 10 different tasks (Beni-Adani et al., 2001) that evaluate their motor ability, balance, and alertness. One point is given for failing to perform a task. […] A score of 10 reflects maximal neurologic impairment, and a decrease of NSS during the recovery period indicates partial recovery of function.
Data was analyzed using the Prism 4.02 programme (GraphPad Software, San Deigo, Calif., USA). The data are expressed as mean±SEM and statistical significance was assessed with one way analysis of variance (ANOVA) followed by a Dunnett's post-hoc analysis for TNF-α levels. Nonparametric NSS values were compared between the two groups at each time point.
In this study four groups of mice were subjected to CHI (n=10/group and control n=9), after which the following agents were administered: • Group 1 (Control): Vehicle only (ethanol:cremophor:saline at ratio of 1:1:18), 1 h after CHI. • Group 2: HU-910, 0.1 mg/kg, dissolved in vehicle (1:1:18 ethanol:cremophor:saline), i.p. 1 h after CHI. • Group 3: HU-910, 1.0 mg/kg, dissolved in vehicle (1:1:18 ethanol:cremophor:saline), i.p. 1 h after CHI. • Group 4: HU-910, 10.0 mg/kg, dissolved in vehicle (1:1:18 ethanol:cremophor:saline), i.p. 1 h after CHI.
In this study four groups of mice were subjected to CHI (n=9/group), after which the following agents were administered: • Group 1 (Control): Vehicle only (ethanol:cremophor:saline at ratio of 1:1:18), 1 h after CHI. • Group 2: HU-910, 10 mg/kg, dissolved in vehicle (1:1:18 ethanol:cremophor:saline), i.p. 1 h after CHI. • Group 3: Specific CB2 antagonist SR144528 (N-[(1S)-endo-1,3,3-trimethylbicyclo[2.2.1]heptan-2-yl]-5-(4-chloro-3-methylphenyl)-1-(4-methylbenzyl)pyrazole-3 carboxamide), (see M. Rinaldi-Carmona, et al. J. Pharmacol. Exp. Ther. 284 (1998) 644-650), 1 mg/kg, i.p. 1 h after CHI. • Group 4: Specific CB2 antagonist (SR144528, N-[(1S)-endo-1,3,3-trimethylbicyclo[2.2.1]heptan-2-yl]-5-(4-chloro-3-methylphenyl)-1-(4-methylbenzy)pyrazole-3 carboxamide), 1 mg/kg, i.p. 1 h after CHI and HU-910 10 mg/kg administered 10 min after administration of antagonist.
In this study four groups of mice were subjected to CHI (n=7-8/group), after which the following agents were administered: • Group 1 (Control): Vehicle only (Dimethyl Sulfoxide (DMSO): Tween 80: Saline at ratio of 1:1:18), i.p. 1 h after CHI. • Group 2: HU-910, 10 mg/kg, dissolved in Vehicle, i.p. 1 h after CHI. • Group 3: Specific CB2 antagonist/inverse agonist AM630 (6-Iodo-2-methyl-1-[2-(4-morpholinyl)ethyl]-1H-indol-3-yl](4-methoxyphenyl)methanone) (Ross et al. 1999)), dissolved in Vehicle, 1 mg/kg, i.p. 1 h after CHI and HU-910, dissolved in Vehicle, 10 mg/kg administered 10 min after administration of antagonist/inverse agonist. • Group 4: Specific CB2 antagonist/inverse agonist AM630 (6-Iodo-2-methyl-1-[2-(4-morpholinyl)ethyl]-1H-indol-3-yl](4-methoxyphenyl)methanone), dissolved in Vehicle, 1 mg/kg, i.p. 1 h after CHI

[2] = biological target: human CB1 receptor (Homo sapiens (Human), UniProt P21554); assay: Membrane competition binding assay with [3H]-CP 55,940, CHO-CB1 membranes; settings: CHO-CB1 cellular membranes, 2.5 nM [3H]-CP 55,940; read-out: Competition Binding Assay CB1 Receptor Ki
Sequence of human CB1 receptor (P21554 whole entry): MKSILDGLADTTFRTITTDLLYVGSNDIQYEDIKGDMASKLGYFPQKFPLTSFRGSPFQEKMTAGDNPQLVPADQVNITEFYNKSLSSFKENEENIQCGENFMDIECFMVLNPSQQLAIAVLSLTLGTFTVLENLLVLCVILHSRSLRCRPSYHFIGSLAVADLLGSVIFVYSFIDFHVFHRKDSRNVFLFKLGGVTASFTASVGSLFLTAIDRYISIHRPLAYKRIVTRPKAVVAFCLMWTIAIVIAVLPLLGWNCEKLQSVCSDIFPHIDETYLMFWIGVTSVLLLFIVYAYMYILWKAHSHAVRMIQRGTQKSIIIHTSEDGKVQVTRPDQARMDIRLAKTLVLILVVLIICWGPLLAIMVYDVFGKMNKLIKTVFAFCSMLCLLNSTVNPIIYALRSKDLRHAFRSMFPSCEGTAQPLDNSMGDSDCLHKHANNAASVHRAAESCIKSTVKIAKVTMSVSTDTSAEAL
Description: (§1) The cDNA clones for human HA-tagged CB1 and CB2 receptors were obtained from the Missouri S&T cDNA Resource Center (www.cdna.org) in cloning vector pcDNA3.1+. The vector containing the human CB2 receptor was transfected directly into CHO-KI cells obtained from ATCC. The HA-tagged human CB1 receptor sequence was subcloned into the pef4-V5-HisA vector with Kpn1 and Pme1 restriction enzymes and subsequently transfected into CHO-K1 cells. Cells were clonally isolated by limited dilution and screened by immunocytochemistry for expression of the HA tag.
(§2) Cells were maintained in DMEM/F12 media supplemented with 10% fetal bovine serum (FBS), 100 units/ml penicillin and 100 μg/ml streptomycin and 2 mM L-glutamine. Transfected cell lines were maintained with additional 150 ug/ml zeocin for pEF HA-CB1 transfected cells and 500 ug/ml G-418 for pcDNA HA-CB2 transfected cells (all reagents obtained from Invitrogen).
(§3) Cells were grown to confluence and harvested in ice cold phosphate buffered saline with 5 mM EDTA. Cells were spun at 200×g for 10 min and frozen at −80° C. until required. Cell pellets were thawed with cold 0.32 M sucrose and homogenised with a glass homogeniser. The homogenate was spun at 1000×g for 10 min at 4° C. and the supernatant spun in a Sorvall ultracentrifuge for 30 min at 100,000×g. The pellet was then washed in ice cold water and re-spun twice more. The final pellet was resuspended in 50 mM Tris pH 7.5, 0.5 mM EDTA. Protein concentration was determined using the Dc protein assay kit (BioRad, Hercules, Calif., USA).
(§4) Membranes (5-10 μg) were incubated with radioligand and a range of concentrations of test compounds in binding buffer (50 mM Tris pH 7.4, 5 mM MgCl2, 1 mM EDTA) with 0.5% (w/v) bovine serum albumin (BSA) (ICP Bio, New Zealand), at 30° C. for 60 min. Stock solutions of putative cannabinoid ligands were prepared in dimethyl sulfoxide to a concentration of 10 mM. Six different final concentrations of compounds were used ranging from 50 μM to 0.1 nM. […] Assays were terminated by addition of 2 ml ice cold binding buffer and filtration through GF/C filters (Whatman) pre-soaked in cold binding buffer, followed by two washes in the same buffer.
(§5) Radioactivity was determined by incubation of filters with Irgasafe scintillation fluid (PerkinElmer) and scintillation counting in a Wallac Trilux using Microbeta Trilux software. Data was analysed using the Prism 4.02 programme (GraphPad Software, San Deigo, Calif., USA).
(§6) All data was analyzed using Prism 4.02. For binding data the Ki was determined from IC50 values derived from competition binding data fitted with one site competition non-linear regression analysis by Prism 4.02 using the Kd values reported above.

[3] = biological target: human CB2 receptor (Homo sapiens (Human), UniProt P34972); assay: Membrane competition binding assay with [3H]-CP 55,940, CHO-CB2 membranes
Description: as §1, §2, §3, §4, §5, §6

## CCCCCCC(C)(C)c1cc(OC)c(C2=C[C@H]3CC[C@]2(CO)C3(C)C)c(OC)c1 [HU-910, (1S,4R)-(2-(2,6-dimethoxy-4-(2-methyloctan-2-yl)phenyl)-7,7-dimethylbicyclo[2.2.1]hept-2-en-1-yl)methanol]
[1]; AM630 1 mg/kg i.p. 1 h after CHI, HU-910 10 mg/kg 10 min later, 1 h to 28 days
  beneficial effect on ΔNSS in the presence of AM630: reduced to a similar extent
[1]; HU-910 10 mg/kg i.p. 1 h after CHI, days 5 and 7 post injury, vs vehicle or 0.1 and 1 mg/kg
  extent of recovery ΔNSS=NSS(1 h)−NSS(t): significant greater recovery
[1]; SR144528 1 mg/kg i.p. 1 h after CHI, HU-910 10 mg/kg 10 min later
  beneficial effect on ΔNSS in the presence of SR144528: reduced to a similar extent
[1]
  most effective dose (recovery, ΔNSS): 10 mg/kg
[2]
  Ki: 1370 nM
[3]
  Ki: 6 nM

## CCCCCCC(C)(C)c1cc(OC)c(C2=C[C@H]3CC[C@]2(C(=O)O)C3(C)C)c(OC)c1 [HU-914, (1S,4R)-2-(2,6-dimethoxy-4-(2-methyloctan-2-yl)phenyl)-7,7-dimethylbicyclo[2.2.1]hept-2-ene-1-carboxylic acid]
[1]; HU-914 5 mg/kg i.p. 1 h after CHI, starting at 3 days post injury, vs vehicle or 10 and 20 mg/kg
  recovery, Neurological Severity Score (ΔNSS): significant greater recovery
[1]; SR144528 1 mg/kg i.p. 1 h after CHI, HU-914 5 mg/kg 10 min later, 24 h to 28 day
  recovery ΔNSS in the presence of SR144528: abolished and reduced to a similar extent as in the control group
[1]
  most effective dose (recovery, ΔNSS): 5 mg/kg
[2]
  Ki: > 50000 nM
[3]
  Ki: 1500 nM
